Test results: patent publication EP0121764B1, “Polypeptides” (F. HOFFMANN-LA ROCHE AG, priority 1983, dated 1990)
No end group written: not given here.

Legend:
[1] = tested on: in Gewebekultur gezüchtete Zellen von Rattenhypophysen; experiment: Growth hormone release from cultured rat pituitary cells (RIA for rat growth hormone); format: cell-based, Sprague-Dawley-Ratten
Source text: Die biologische Aktivität von (leu^27)-GRF(1―44)-OH wurde mit derjenigen von natürlichem GRF(1―44)-NH2 verglichen, das aus einem Pankreastumor eines an Akromegalie leidenden Patienten isoliert wurde (Salk Institute Standard hp-GRF-NH2(NL-A-10)). Der Test auf biologische Aktivität, bei dem die Fähigkeit gemessen wird, in Gewebekultur gezüchtete Zellen von Rattenhypophysen zur Wachstumshormonproduktion zu stimulieren, wurde in der folgenden Weise durchgeführt:
Die Hypophysen-Vorderlappen von 30-40 männlichen Sprague-Dawley-Ratten (175 g) wurden dreimal mit sterilem Hepes-Puffer (pH 7,5) gewaschen und bei 37°C in 20-30 ml Hepes-Puffer (0,025 m, pH 7,35), enthaltend Kollagenase (4 mg/ml) und Dispase (2 mg/ml), dispergiert. Nach 100-110 minütiger Behandlung mit einem Vortex-Mixer und Behandlung mit Pasteur-Pipette, wurden die dispergierten Zellen durch Zentrifugieren (4 Minuten, 150xg) abgetrennt und während 10 Minuten in Hepes-Puffer, enthaltend 8 pg/ml Neuraminidase und 200 pg/ml Ethylendiamintetraessigsäure-dinatriumsalz, pH 7,35, resuspendiert. Die Zellen wurden zweimal mit folgendem Medium gewaschen: F-12/DMEM/BGjb (6:3:1) (Gibco: 430―1700/430―1600/320―2591) mit 2 g/I Rinderserumalbumin (BSA), 2x38 g/I Hepes und 50 mg/I Gentamycin und auf Mikrotiterplatten aufgebracht (1,5x10^5 Zellen/ml). Dem Medium in den einzelnen Löchern wurde entweder (leu^27)-GRF(1―44)-OH oder natürliches GRF(1-44)-NH2 in solchen Mengen zugesetzt, dass sich folgende Konzentrationen ergaben: 3.1, 6.3, 12.5, 25.0, 50.0, 100.0 und 200.0 fMol/ml. Die Kontrollen wurden nicht supplementiert. Das Aufbringen mit diesem Medium erfolgte unter Zusatz von 2% fötalem Kälberserum, um eine schnelle Fixierung der Zellen zu erreichen. Am vierten Tag wurden die Zellen zweimal mit dem oben definierten Medium (ohne Kälberserum) gewaschen. Schliesslich wurden jedem Loch 900 µl des Mediums sowie 100 µl Medium mit der Testsubstanz zugesetzt (jeweils dreifach). Nach dreistündiger Inkubation wurde der Überstand gesammelt und soweit verdünnt, dass Radioimmunoassays (RIAs) auf Ratten-Wachstumshormon durchgeführt werden konnten. […]

[2] = synthetically prepared peptides; factor relative to GRF(1-40)-OH; cited from earlier work

(leu^27)-GRF(1―44)-OH (YADAIFTNSYRKVLGQLSARKLLQDILSRQQGESNQERGARARL-OH; UniProt P01286 32-75, looked up, variant M27L) [(Leu^27)-GRF(1-44)-OH]
relative Aktivität gegenüber dem Standard des Salk Instituts ([1]; computer analysis of the table data, standard hp-GRF-NH2(NL-A-10) = natural GRF(1-44)-NH2, 3.1-200.0 fMol/ml, 3 h incubation): 1,063 | Faktor, um den die ausgeschüttete Menge an Wachstumshormon grösser ist, bezogen auf (leu^27)-GRF-OH ([1]; in vitro): ≥ 10 | Aktivität verglichen mit GRF(1-44)-NH2 ([1]; stimulation of growth hormone production, 3.1-200.0 fMol/ml, 3 h incubation): gleich oder leicht höher

GRF(1-39)-NH2: synthetic GRF fragment, first 39 amino acids, amidated (Rivier et al.) (YADAIFTNSYRKVLGQLSARKLLQDIMSRQQGESNQERG-NH2; UniProt P01286 32-70, looked up, fragment)
Aktivitäten ähnlich wie GRF(1-40)-OH (innerhalb eines Faktors) [2]: ≤ 2

GRF(1-29)-NH2: synthetic GRF fragment, first 29 amino acids, amidated (Rivier et al.) (YADAIFTNSYRKVLGQLSARKLLQDIMSR-NH2; UniProt P01286 32-60, looked up, fragment)
Aktivitäten ähnlich wie GRF(1-40)-OH (innerhalb eines Faktors) [2]: ≤ 2

GRF(1-32)-NH2: synthetic GRF fragment, first 32 amino acids, amidated (Rivier et al.) (YADAIFTNSYRKVLGQLSARKLLQDIMSRQQG-NH2; UniProt P01286 32-63, looked up, fragment)
Aktivitäten ähnlich wie GRF(1-40)-OH (innerhalb eines Faktors) [2]: ≤ 2

GRF(1-40)-NH2: synthetic GRF fragment, first 40 amino acids, amidated (Rivier et al.) (YADAIFTNSYRKVLGQLSARKLLQDIMSRQQGESNQERGA-NH2; UniProt P01286 32-71, looked up, fragment)
Aktivitäten ähnlich wie GRF(1-40)-OH (innerhalb eines Faktors) [2]: ≤ 2
